Test results as given in patent publication US10633570B2, “Anti-ice nucleation activator” (THE SCHOOL CORPORATION KANSAI UNIVERSITY, priority 2015, dated 2020).

Key:
Format in all cases: physicochemical
[1] = Anti-ice nucleation active performance (supercooling acceleration), droplet-freezing method of Vali, with silver iodide; conditions: 100 μL mixed with 900 μL silver iodide 1.0 mg/mL, average of three tests; for Anti-ice nucleation activity level (ΔT50 = BlankT50 − SampleT50): purine base aqueous solution 1.0 mg/mL, cooling 1.0° C./min
Procedure: Nine hundred microliters of an aqueous solution was prepared by dissolving silver iodide (produced by Wako Pure Chemical Industries, Ltd.) in ultra-pure water to a silver iodide concentration of 1.0 mg/mL.
(§1) A blank sample was prepared by mixing 100 μL of ultra-pure water with 900 μL of the aqueous solution in which silver iodide was dissolved.
(§2) The anti-ice nucleation active performance (supercooling acceleration performance) was measured by using the droplet-freezing method of Vali. More specifically, in accordance with the droplet-freezing method of Vali (FIG. 3), an aluminum film was placed on the copper plate of a cold plate chiller (CoolAce CCA-1000, Eyela), and the film was coated with a silicone oil suspension diluted with acetone and chloroform (a solution of acetone:chloroform=1:2). Then, each sample for evaluation or the blank sample was dropped (10 μL each) on 30 points of the surface, the temperature was decreased at a rate of 1.0° C./min, and the temperature at which 50% of the 30 droplets were frozen was considered to be T50.
(§3) The droplet-freezing temperature of each sample was referred to as SampleT50, and the droplet-freezing temperature of the blank sample was referred to as BlankT50. Then, the anti-ice nucleation activity level ΔT50 (° C.) was calculated by the following formula: Formula: ΔT50 (° C.)=BlankT50−SampleT50
Nine hundred microliters of an aqueous solution was prepared by dissolving silver iodide in ultra-pure water to a silver iodide concentration of 1.0 mg/mL.
as §1
(§4) The results are average values of the results of the test performed three times.
as §1, §4

Pseudomonas fluorescens = assay: Anti-ice nucleation active performance, droplet-freezing method of Vali, with Pseudomonas fluorescens as ice nucleation active substance; conditions: Example 1 solution (1.0 mg/mL); Pseudomonas fluorescens in place of silver iodide
Procedure: The anti-ice nucleation active performance (supercooling acceleration performance) was measured by using the droplet-freezing method of Vali. More specifically, in accordance with the droplet-freezing method of Vali (FIG. 3), an aluminum film was placed on the copper plate of a cold plate chiller (CoolAce CCA-1000, Eyela), and the film was coated with a silicone oil suspension diluted with acetone and chloroform (a solution of acetone:chloroform=1:2). […]
as §3
A sample for evaluation of Example 1 was prepared in a manner similar to that described in Test Example 1, except that Pseudomonas fluorescens, which is the Pseudomonas bacterium, was used in place of silver iodide, which is an ice nucleation active substance. The anti-ice nucleation active performance (supercooling acceleration performance) was measured by using a test method similar to that described in Test Example 1.

[2] = Anti-ice nucleation activity test with respect to biological material (beef liver), droplet-freezing method of Vali; conditions: final concentration 0.1 mg/mL, 10 μL dropped on 1 mm x 1 mm x 1 mm beef liver; blank ultra-pure water; average of three tests
Procedure: as §2
as §3, with “C.)=BlankT50−SampleT50 […]” for “C.)=BlankT50−SampleT50”
The anti-ice nucleation active performance (supercooling acceleration performance) was measured by using a method similar to the droplet-freezing method of Vali described in Test Example 1. […]

[3] = adenine concentration series 0.1-6.0 (mM) per Example
[4] = polydeoxyadenylic acid with 6, 9 or 12 adenine bases, 1.0 mg/mL in TE buffer

| Molecule | Anti-ice nucleation activity level (ΔT50 = BlankT50 − SampleT50) [1] [°C] | Anti-ice nucleation activity level (ΔT50) [1, 3] [°C] | further results |
| --- | --- | --- | --- |
| Nc1nc2nc[nH]c2c(=O)[nH]1 [Example 2, Guanine] | 1.0 | – | – |
| Nc1ncnc2nc[nH]c12 [Example 11, adenine] | – | 4.9 | – |
| Nc1ncnc2nc[nH]c12 [Example 1, adenine] | 9.2 | 9.2 | Anti-ice nucleation active performance (ΔT50) (Pseudomonas fluorescens): 1.0 °C; Anti-ice nucleation activity level with respect to beef liver [2]: 0.9 °C |
| Nc1ncnc2nc[nH]c12 [Example 9, adenine] | – | 2.3 | – |
| Nc1ncnc2nc[nH]c12 [Example 14, adenine] | – | 7.2 | – |
| Nc1ncnc2nc[nH]c12 [Example 12, adenine] | – | 7.8 | – |
| Cn1cnc2c1c(=O)[nH]c(=O)n2C [Example 4, Theobromine] | 1.2 | – | – |
| polydeoxyadenylic acid [Example 15] | – | – | Anti-ice nucleation activity level (ΔT50) [1, 4]: 1.26 °C |
| O=c1[nH]cnc2nc[nH]c12 [Example 3, Hypoxanthine] | 2.1 | – | – |
| polydeoxyadenylic acid [Example 17] | – | – | Anti-ice nucleation activity level (ΔT50) [1, 4]: 1.60 °C |
| Nc1ncnc2nc[nH]c12 [Example 8, adenine] | – | 1.7 | – |
| Cn1c(=O)c2[nH]cnc2n(C)c1=O [Example 7, Theophylline] | 2.0 | – | – |
| polydeoxyadenylic acid [Example 16] | – | – | Anti-ice nucleation activity level (ΔT50) [1, 4]: 1.43 °C |
| O=c1[nH]c(=O)c2[nH]c(=O)[nH]c2[nH]1 [Example 6, Uric acid] | 1.8 | – | – |
| Nc1ncnc2nc[nH]c12 [Example 13, adenine] | – | 6.7 | – |
| Cn1c(=O)c2c(ncn2C)n(C)c1=O [Example 5, Caffeine] | 1.3 | – | Anti-ice nucleation activity level with respect to beef liver [2]: 0.7 °C |
| Nc1ncnc2nc[nH]c12 [Example 10, adenine] | – | 4.3 | – |
